Measurements reported in patent publication US20230020507A1, “COMPOUND AND USE THEREOF IN TREATING AUTOIMMUNE DISEASES” (PARENCHYMA BIOTECH INC., priority 2019, published 2023).

Experiments:
[1] = test system: Foxp3+ regulatory T cells; test: In vitro regulatory T cell (Foxp3+ Treg) production from human peripheral blood CD4 T cells; type: cell-based; details: anti-CD3/anti-CD28, TGFβ-1, IL-2, 2.5 μM, 7 days
Procedure: Human peripheral blood (AllCells) and phosphate buffered saline (PBS) were mixed in a ratio of 1:1 to prepare a mixture, followed by allowing the mixture to slowly rise so as not to be mixed into the upper layer of Histopaque (Sigma). After centrifugation at 350 g for 20 minutes, only the monocyte layer in the middle layer was collected and washed with HBSS (Hanks' Balanced Salt Solution, Gibco®). After washing with MACS buffer (Miltenyi Biotec) once more to obtain T-cells, positive selection (autoMACS seperator, Miltenyi Biotec) was performed with CD4 Microbeads (Miltenyi Biotec). The T-cells collected by the above method were prepared by resuspending the cells in RPMI-fetal bovine serum (FBS) 10%+2-ME (mercaptoethanol) medium at 5×10^5/ml. For T-cell activation, 10 μg/ml anti-CD3 (eBioscience™) was dispensed by 150 μl into a 48-well plate, reacted in a cell incubator (37° C., 5% CO2 incubator) for 3 hours, and washed with phosphate buffered saline to prepare the plate. 250 μl of resuspended T-cells was dispensed onto the prepared plate, and each well was treated with 2 μg/ml of anti-CD28 (eBioscience™), 5 ng/ml of TGFβ-1 (R&D systems), and 50 U/ml of IL-2 (Miltenyi Biotec). Each 5 μl of compounds at a concentration of 2.5 μM diluted in RPMI+2ME medium was used for treatment, followed by culturing the same in a cell incubator (37° C., 5% CO2 incubator) for 7 days. As a control, 5 μl of 0.05% dimethylsulfoxide (DMSO)/RPMI medium was used for treatment. After 7 days, in order to confirm effects of producing regulatory T cells, the cultured cells were recovered to determine the presence of Foxp3 protein.
The recovered cells were placed in a 5 ml FACS tube (BD Falcon) and washed with 1 ml of phosphate buffered saline. The cells were resuspended in 0.1 ml of FACS buffer (0.1% NaN3, 1% FBS) and treated with 1 μg of human immunoglobulin G (Human IgG, Sigma) to prevent non-specific binding of the antibody. After reacting at 4° C. for 15 minutes, the cells were washed with FACS buffer. Then, 1 ml of Fixation/Permeabilization solution (eBioscience™) was added to the FACS tube containing each sample, followed by reaction at 4° C. for 1 hour. Thereafter, the product was washed twice with a Permeabilization buffer (eBioscience™). Then, 0.25 μg of Foxp3 monoclonal antibody (eBioscience™) was used for treatment, followed by staining the sample for 4 to 30 minutes. The cells were washed twice with the permeabilization buffer, suspended in 0.3 ml of FACS buffer, and measured by flow cytometry.

[2] = test system: C57BL/6 mice with DSS-induced inflammatory bowel disease; test: DSS-induced inflammatory bowel disease model, severity index and colon weight:length ratio; type: in vivo, mouse; details: 20 mg/kg oral daily, compared to solvent control; for inflammatory bowel disease severity index: 2nd to 11th day, 10th day of the experiment; for colon weight:length ratio (intestinal inflammation): 15th day of the experiment
Procedure: The 1.5% DSS solution was changed at an interval of 2 days. Sterile distilled water was provided for drinking from the 8th day of the experiment. Body weight and severity index were measured at an interval of 2 days from the 0th day of the experiment in order to confirm the onset of inflammatory bowel disease.
20 mg/kg of the compound per mouse was completely dissolved in DMSO corresponding to 10% (v/v) of the administered dose, and then diluted in a cremophor EL-phosphate buffered saline mixture in order to produce the final DMSO:Cremophor EL:phosphate buffered saline (1:1:8, v/v/v), followed by oral administration of 200 μl daily for a total of 10 times from the 2nd to 11th days of the experiment. An inflammatory bowel disease severity index was visually observed and recorded at an interval of 2 days according to a severity index system classified into 0 to 10 levels.
Inflammatory bowel disease symptoms were evaluated by summing the scores of three items according to the following items (Table 3).

[3] = test system: IFN-γ, IL-17A, IL-1β, IL-10 and Foxp3 expression in spinal cord lesions; test: mRNA expression of inflammatory and immunomodulatory factors in spinal cord of EAE mice (real-time PCR); type: in vivo, mouse; details: 20 mg/kg i.p., 42nd day, compared to solvent control
Description: On the 42nd day of the experiment, the spinal cord of the mouse was excised to prepare an mRNA sample. In order to extract mRNA, the spinal cord tissue was ground with a homogenizer to obtain a homogeneous suspension. […] Then, cDNA was synthesized from the isolated RNA by reverse transcription, and the expression of inflammatory cytokines was investigated through real-time polymerase chain reaction (PCR) using iQ SYBR-Green Supermix (Bio-rad) in the CFX96 (Bio-rad) detection system. Relative values of the enzyme expression levels were compared by the ΔΔct method using GAPDH as a control enzyme. Herein, one (1) fold was set using the WT mouse spinal cord as a control.
The real-time polymerase chain reaction was implemented under the conditions of cycles at an annealing temperature of 58° C., and the following primer sequences were used.

[4] = test system: IL-1β, IL-6, IL-17A, TNF-α, IL-10 and Foxp3 expression in colon lesions; test: mRNA expression of inflammatory and immunomodulatory factors in colon of DSS mice (real-time PCR); type: in vivo, mouse; details: 20 mg/kg oral, 15th day, compared to solvent control
Description: On the 15th day of the experiment, the colon of the mouse was excised to prepare an mRNA sample. In order to extract mRNA, the colon tissue was ground with a homogenizer to acquire a homogeneous suspension. […] From the isolated RNA, cDNA was synthesized by reverse transcription followed by confirming the expression of inflammatory cytokines through real-time polymerase chain reaction (PCR) using iQ SYBR-Green Supermix (Bio-rad) in the CFX96 (Bio-rad) detection system. Relative values of the enzyme expression levels were compared by the ΔΔct method using GAPDH as a control enzyme. Herein, one (1) fold was set using the normal mouse colon as a control.
The real-time polymerase chain reaction was implemented under the conditions of cycles at an annealing temperature of 58′° C. and the following primer sequences were used.

[5] = test system: C57BL/6 mice with autoimmune encephalomyelitis (EAE); test: Experimental autoimmune encephalomyelitis (EAE) model of multiple sclerosis, severity index; type: in vivo, mouse; details: 20 mg/kg intraperitoneally daily 12th to 17th day
Procedure: On day 0, myelin oligodendrocyte glycoproteins 35-55 (MOG 35-55, Peptron) (200 μg), heat-killed Mycobacterium tuberculosis (Difco, Cat No. 231141) (500 μg), and adjuvant (Complete Freund's adjuvant, Sigma Aldrich, Cat No. F5506) were mixed together and then submerged for 7 minutes. After subcutaneous injection of 100 μl of the submerged peptide into both flanks of each of C57BL/6 mice (7 weeks old, female, 17±2 g), 100 μl of pertussis toxin (Sigma Aldrich. Cat No. P2980) (200 ng) was administered intravenously to the tail.
On the 2nd day of the experiment, the same amount of pertussis toxin was administered intravenously. The mice were checked for immersion leaking from the injected site, and visually observed from the 7th day of the experiment in order to confirm the onset of multiple sclerosis.
The multiple sclerosis index was visually observed and recorded at an interval of 2 days from the 7th day of the experiment in the severity index system classified into 0-5 stages, and autoimmune encephalomyelitis symptoms were indexed according to the following items (see Table 4).

[6] = scale 0-5, solvent control 3.33±0.17

SMILES | generation of Foxp3+ regulatory T cells [1] | inflammatory bowel disease severity index [2] | colon weight:length ratio (intestinal inflammation) [2] | further results
O=C(Cc1c[nH]c2ccccc12)Nc1cc(Cl)cc(Cl)c1 [Compound 81, N-(3,5-dichlorophenyl)-2-(1H-indol-3-yl)acetamide] | promoted |  |  | 
COc1cc(NC(=O)Cc2c[nH]c3ccccc23)cc(OC)c1OC [Compound 71, 2-(1H-indol-3-yl)-N-(3,4,5-trimethoxyphenyl)acetamide] | promoted |  |  | 
Cc1nc(NC(=O)Cc2c[nH]c3ccc(Cl)cc23)ccc1Br [Compound 8, N-(5-bromo-6-methylpyridin-2-yl)-2-(5-chloro-1H-indol-3-yl)acetamide] | promoted | statistically significant therapeutic effects | significantly suppressed | expression level of Foxp3 in spinal cord lesions [3]: significantly increased; expression level of IFN-γ in the spinal cord lesion [3]: significantly reduced; expression level of IL-1β in the spinal cord lesion [3]: significantly reduced; expression level of IL-10 in spinal cord lesions [3]: significantly increased; expression level of IL-17A in the spinal cord lesion [3]: significantly reduced; expression level of Foxp3 in the colon lesion [4]: significantly increased; expression level of IL-1β in colon lesions [4]: significantly reduced; expression level of IL-6 in colon lesions [4]: significantly reduced; expression level of IL-10 in the colon lesion [4]: significantly increased; expression level of IL-17A in colon lesions [4]: significantly reduced; expression level of TNF-α in colon lesions [4]: significantly reduced; treatment effects on EAE severity index compared to solvent control from the 16th day, maintained after administration was stopped [5]: statistically significant treatment effects; severity index (EAE), 18th day, acute reaction period [5, 6]: 1.17±0.56; severity index (EAE), 36th day, chronic reaction period [5, 6]: 1.17±0.56
CN(C(=O)Cc1c[nH]c2ccc(F)cc12)c1nc2ccccc2s1 [Compound 60, N-(benzo[di]thiazol-2-yl)-2-(5-fluoro-1H-indol-3-yl)-N-methyl acetamide] |  | statistically significant therapeutic effects | significantly suppressed | 
O=C(Cc1c[nH]c2ccccc12)Nc1ccc(Cl)c(F)n1 [Compound 23, N-(5-chloro-6-fluoropyridin-2-yl)-2-(1H-indol-3-yl)acetamide] | promoted |  |  | 
Cc1nc(NC(=O)Cc2c[nH]c3ccc(F)cc23)ccc1Br [Compound 2, N-(5-bromo-6-methylpyridin-2-yl)-2-(5-fluoro-1H-indol-3-yl)acetamide] | promoted |  |  | 
CN(C(=O)Cc1c[nH]c2ccc(Cl)cc12)c1nc2ccccc2s1 [Compound 47] | promoted |  |  | 
CN(C(=O)Cc1c[nH]c2ccccc12)c1nc2ccccc2s1 [Compound 44, N-(benzo[di]thiazol-2-yl)-2-(1H-indol-3-yl)-N-methyl acetamide] | promoted | statistically significant therapeutic effects | significantly suppressed | 
Cc1nc(NC(=O)Cc2c[nH]c3ccccc23)ccc1Br [Compound 5, N-(5-bromo-6-methylpyridin-2-yl)-2-(1H-indol-3-yl)acetamide] | promoted |  |  | 
